Experimental data reported in patent US20110206720A1, “ANTI-INFLAMMATORY USAGE OF ANTRODIA CINNAMOMEA FRUIT BODY DERIVATIVES” (Taiwan Leader Biotech Corp, priority 2010, published 2011).

Columns and labels:
Assay type in all cases: cell-based, mice
[1] = tested on: mRNA of COX-2; experiment: COX-2 mRNA expression in LPS-treated RAW 267.4, RT-PCR; conditions: RAW 267.4, LPS; dose-dependent, higher dose; FIG. 4B
Protocol: (§1) Trizol reagent (Invitrogen Life Technologies, Carlsbad, Calif., USA) is used to extract the total RNA of macrophages. mRNA of iNOS, COX-2 and G3PDH is reversely transcribed to be cDNA by the RT-PCR, and then the expression of iNOS, COX-2 and G3PDH are quantified with the real time-PCR (Applied Biosystems).
(§2) Said real time-PCR detects the PCR products by DNA binding SYBR Green. The thermal cycles are: 95° C., 5 min, 1 min for 40 cycles at 95° C., 45 s for 55° C., and 30 s for 72° C. The sequence of primers is: iNOS forward 5′-TCC TAC ACC ACA CCA AAC-3′; iNOS reverse 5′-CTC CAA TCT CTG CCT ATC C-3′; COX-2 forward 5′-CCT CTG CGA TGC TCT TCC-3′, COX-2 reverse 5′-TCACACTTATACTGGTCAAATCC-3′, G3PDH forward 5′-TCA ACG GCA CAG TCA AGG-3′; G3PDH reverse 5′-ACT CCA CGA CAT ACT CAG C-3′. G3PDH are housekeeping genes which are genes with stable and large number of expression in cells and are used to standardize the expression of iNOS and COX-2 in the experiment.
(§3) In addition, total RNA and total protein are extracted from each group of macrophages. According to the paragraphs of RT-PCR and western blot analysis in Experiment I, the expression of iNOS and COX-2 are evaluated from the perspectives of mRNA and protein.

[2] = tested on: COX-2; experiment: COX-2 protein expression in LPS-treated RAW 267.4, western blot; conditions: RAW 267.4, LPS; dose-dependent, especially at 20 µg/ml; FIG. 5B
Protocol: (§4) After getting the total protein of macrophages, add the equal amount of protein in 5˜7% SDS-PAGE, resolve for 90 m at 300 mA, blotting (100V, 1 hour) proteins resolved in different sizes to polyvinylidene difluoride (PVDF, Immobilon, Millipore, Bedford, Mass.), and then put PVDF in the blocking buffer (10% w/v skim milk powder in TBST) for 1 hour.
(§5) Then, dip PVDF in the anti-iNOS solution (1:1000, Cayman Chemicals) and clean twice with 0.1% TBST buffer (TBS buffer containing 0.1% Tween 20) to clear the non-specific bonded antibody and antigen.
(§6) Next, dip PVDF in the anti-rabbit secondary antibodies solution with horseradish peroxidase, detect the fluorescence density of each group by enhanced chemiluminescene regents (ECL, Pierce), and take the expression of β-actin as the reference group.
as §3

[3] = tested on: macrophage RAW 267.4; experiment: LPS-elicited NO production in macrophage RAW 267.4, nitrite by Griess reaction; parameters: unit not given here; conditions: then LPS 1 g/ml 24 hours
Protocol: (§7) The invention chooses the macrophage RAW 267.4 of mice for the discussion about the production of NO and prostaglandin-E2 (PGE2). For the culture of RAW 267.4 cell, firstly inoculate RAW 267.4 macrophages growing in the culture plate (75 cm^2) in 96-well plate in the density of 2×10^5 cells/well and then culture them in the incubator (37° C., 5% CO2). DMEM culture medium is selected according to the recommendation of ATCC (American TypeCulture Collection), with 10% fetal bovine serum (FBS), penicillin (100 units/ml) and streptomycin ([…]) added.
Firstly, RAW 267.4 is cultured as detailed in Experiment I and divided into three groups: group 1 (ACE), group 2 (ACE-EA) and group 3 (ACE-water). For each group, add said ACE, ACE-EA and ACE-water of different concentrations (1, 10, 25, 50 g/ml) in the culture medium, add LPS to elicit RAW267.4 producing NO, and measure the content of nitrite after 24 hours by Griess reaction to indirectly measure the amount of NO.
NO activity inhibition tests are conducted on RAW 267.4 macrophages (see reference in Cell culture, Experiment I) to 17 fractions respectively. Firstly, divide RAW 267.4 cells into 17 groups, add 17 fractions (50 g/ml) in the culture medium, and then add LPS (1 g/ml) to elicit the production of NO. 24 hours later, Griess reaction is conducted to measure the content of nitrites and thus indirectly measuring the production of NO and calculating the inhibition rate of NO.
In the experiment of production of NO, firstly RAW 267.4 cells are cultured as Experiment I states, handled for 1 hour in antrocamphin A (1, 5, 10, 20 g/ml) or curcumin (10 g/ml), and then processed for 24 hours with LPS (1 g/ml). Then, Griess reaction is conducted to measure the content of nitrites and thus indirectly obtaining the production of NO.

[4] = tested on: mRNA of iNOS; experiment: iNOS mRNA expression in LPS-treated RAW 267.4, RT-PCR; conditions: RAW 267.4, LPS; dose-dependent, higher dose; FIG. 4A
Protocol: as §1, §2, §3

[5] = tested on: macrophage RAW 267.4; experiment: MTT test of toxicity to cells (cell survival rate)
Protocol: The invention chooses the macrophage RAW 267.4 of mice for the discussion about the production of NO and prostaglandin-E2 (PGE2). For the culture of RAW 267.4 cell, firstly inoculate RAW 267.4 macrophages growing in the culture plate (75 cm^2) in 96-well plate in the density of 2×10^5 cells/well and then culture them in the incubator (37° C., 5% CO2). DMEM culture medium is selected according to the recommendation of ATCC (American TypeCulture Collection), with 10% fetal bovine serum (FBS), penicillin (100 units/ml) and streptomycin ([…]) added. In addition, the familiar MTT is utilized to test the toxicity of Antrocamphin A to cells. Said MTT is a method for detecting cell survival rate or cell proliferation in biology on principle that succinate dehydrogenase in the mitochondria of live cell metabolizes tetrazolium of MTT to be blue products. After DMSO is added to resolve the blue metabolized products accumulated in cells, the amount of blue metabolized products is measured by spectrometer to indirectly calculate the number of live cells.

[6] = tested on: macrophage RAW 267.4; experiment: LPS-elicited prostaglandin-E2 (PGE2) production in macrophage RAW 267.4, ELISA; parameters: unit not given here; conditions: RAW 267.4, aspirin 3 hours, then LPS 1 g/ml 16 hours
Protocol: as §7
In the experiment for measuring the production of prostaglandin-E2 (PGE2), firstly RAW 267.4 cells are cultured as Experiment I states and […] aspirin is added in the culture medium for 3 hours so that the endogenous COX-1 is deactivated. Then, they are handled for 1 hour in antrocamphin A (1, 5, 10, 20 g/ml) or curcumin (10 g/ml) and processed for 16 hours with LPS (1 g/ml). Finally, supernatant liquid in the cell culture is measured by ELISA kit (Cayman Chemicals) so as to get the production of prostaglandin-E2 (PGE2) in endogenous arachidonic acid.

[7] = tested on: iNOS; experiment: iNOS protein expression in LPS-treated RAW 267.4, western blot; conditions: RAW 267.4, LPS; dose-dependent, especially at […]; FIG. 5A
Protocol: as §4, §5, §6, §3

## C=C(C)C#Cc1c(OC)cc(OC)c(OC)c1C [antrocamphin A, Antrocamphin A]
[1]
  expression of mRNA of COX-2: effectively reduce the amount of mRNA of iNOS and COX-2
[2]
  expression of COX-2 (protein): effectively reduce the expression of iNOS and COX-2
[3]; RAW 267.4, 1 g/ml for 1 hour
  Production of NO (M): 18 ± 0.36
[3]; RAW 267.4, 5 g/ml for 1 hour
  Production of NO (M): 14.68 ± 0.54
[3]; RAW 267.4, 10 g/ml for 1 hour
  Production of NO (M): 11.14 ± 0.18
[3]; RAW 267.4, 20 g/ml for 1 hour
  Production of NO (M): 7.27 ± 0.18
[4]
  expression of mRNA of iNOS: effectively reduce the amount of mRNA of iNOS and COX-2
[5]; MTT, RAW 267.4, 1 g/ml, with LPS
  Cell survival rate (%): 93 ± 4.13%
[5]; MTT, RAW 267.4, 5 g/ml, with LPS
  Cell survival rate (%): 92 ± 5.49%
[5]; MTT, RAW 267.4, 10 g/ml, with LPS
  Cell survival rate (%): 89 ± 3.22%
[5]; MTT, RAW 267.4, 20 g/ml, with LPS
  Cell survival rate (%): 79 ± 3.54%
[6]; 1 g/ml for 1 hour
  Production of prostaglandin-E2 (PGE2): 411.5 ± 20.92
[6]; 5 g/ml for 1 hour
  Production of prostaglandin-E2 (PGE2): 360.9 ± 23.95
[6]; 10 g/ml for 1 hour
  Production of prostaglandin-E2 (PGE2): 237.96 ± 83.85
[6]; 20 g/ml for 1 hour
  Production of prostaglandin-E2 (PGE2): 24.62 ± 15.36
[7]
  expression of iNOS (protein): effectively reduce the expression of iNOS and COX-2

## COc1cc(/C=C/C(=O)CC(=O)/C=C/c2ccc(O)c(OC)c2)ccc1O [curcumin, reference compound]
[5]; mouse, 10 g/ml
  Cell survival rate (%): 76 ± 4.6%
[6]; 10 g/ml for 1 hour
  Production of prostaglandin-E2 (PGE2): 6.82 ± 5.2
